ChEMBL document CHEMBL1201862, “PubChem BioAssay data set” (2004)
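Tested at 5 concentrations; 48 h exposure; 96-well plates; endpoints linearly interpolated, else capped at highest concentration. GI50 is the concentration that inhibits growth by half.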 Activity calls are given as the source filed them. Rule as the data show it: active = GI50 up to about 1.1 µM and inactive = higher. Non-standard residues stand in square brackets, D forms with d. Residues, ends and D or L forms follow the SMILES beside them. *: point of attachment. Cbz = O=C(OCc1ccccc1)*; Boc = CC(C)(C)OC(=O)*; Aib = CC(C)(N)C(=O)O; OBn = c1ccc(CO*)cc1; OtBu = CC(C)(C)O*; βAla = NCCC(=O)O

Assays:
Assay in all cases: inhibition of tumour cell growth, NCI panel, 48 h
LOX IMVI = tested on: LOX IMVI
U-251 = tested on: U-251
SNB-19 = tested on: SNB-19
HT-29 = tested on: HT-29
SK-MEL-28 = tested on: SK-MEL-28
SW-620 = tested on: SW-620
Malme-3M = tested on: Malme-3M
IGROV-1 = tested on: IGROV-1
Hs-578T = tested on: Hs-578T
SF-539 = tested on: SF-539
T47D = tested on: T47D
K562 = tested on: K562
NCI-H522 = tested on: NCI-H522
MOLT-4 = tested on: MOLT-4
MCF7 = tested on: MCF7
HCT-116 = tested on: HCT-116
CCRF-CEM = tested on: CCRF-CEM
UACC-62 = tested on: UACC-62
NCI-H460 = tested on: NCI-H460
OVCAR-4 = tested on: OVCAR-4

| Structure (SMILES) | GI50 (LOX IMVI) | GI50 (U-251) | GI50 (SNB-19) | GI50 (HT-29) | GI50 (SK-MEL-28) | GI50 (SW-620) | GI50 (Malme-3M) | GI50 (IGROV-1) | GI50 (Hs-578T) | GI50 (SF-539) | GI50 (T47D) | GI50 (K562) | GI50 (NCI-H522) | GI50 (MOLT-4) | GI50 (MCF7) | GI50 (HCT-116) | GI50 (CCRF-CEM) | GI50 (UACC-62) | GI50 (NCI-H460) | GI50 (OVCAR-4) |
| --- | --- | --- | --- | --- | --- | --- | --- | --- | --- | --- | --- | --- | --- | --- | --- | --- | --- | --- | --- | --- |
| C=C(C)C(=O)OC1C[C@H](COC(C)=O)C2CC=C(CO)C2C2OC(=O)C(=C)[C@H]12 (stereo not given in full) | 26.7 µM (inactive) | > 100 µM (inactive) | > 100 µM (inactive) | 32.3 µM (inactive) | 32.3 µM (inactive) | 16.2 µM (inactive) | 16.8 µM (inactive) | > 100 µM (inactive) | > 100 µM (inactive) | > 100 µM (inactive) | 34.8 µM (inactive) | 14.9 µM (inactive) | 19.1 µM (inactive) | 13.8 µM (inactive) | 38.1 µM (inactive) | 18.3 µM (inactive) | 10.4 µM (inactive) | 39.6 µM (inactive) | > 100 µM (inactive) | – |
| CC(C)(C)OC(=O)CC(NC(=O)OC(C)(C)C)C(=O)NC(CCCCNC(=O)OCc1ccccc1)C(=O)NC(C)(C)C(=O)NCCC(=O)OCc1ccccc1 (stereo not given) (Boc-D(OtBu)K(Cbz)[Aib][βAla]-OBn; configuration not given here) | > 100 µM (inactive) | > 100 µM (inactive) | > 100 µM (inactive) | > 100 µM (inactive) | > 100 µM (inactive) | > 100 µM (inactive) | > 100 µM (inactive) | > 100 µM (inactive) | > 100 µM (inactive) | > 100 µM (inactive) | > 100 µM (inactive) | > 100 µM (inactive) | > 100 µM (inactive) | > 100 µM (inactive) | > 100 µM (inactive) | > 100 µM (inactive) | – | > 100 µM (inactive) | > 100 µM (inactive) | > 100 µM (inactive) |
| Cc1cccc(C)c1NC(=S)NC=C1C(=O)c2ccccc2C1=O | 19.1 µM (inactive) | 3.09 µM (inactive) | 18.2 µM (inactive) | 5.78 µM (inactive) | 15.3 µM (inactive) | 6.85 µM (inactive) | – | 6.95 µM (inactive) | 10.5 µM (inactive) | 11.2 µM (inactive) | 6.17 µM (inactive) | 3.61 µM (inactive) | 3.41 µM (inactive) | 0.75 µM (active) | 4.59 µM (inactive) | 4.62 µM (inactive) | 5.18 µM (inactive) | 5.24 µM (inactive) | 3.98 µM (inactive) | 10.5 µM (inactive) |
| COc1cc(-c2oc3c(OC)cc(OC)c(O)c3c(=O)c2OC)cc(OC)c1OC | 3.24 µM (inactive) | 4.65 µM (inactive) | 3.82 µM (inactive) | > 100 µM (inactive) | > 100 µM (inactive) | 6.28 µM (inactive) | 5.97 µM (inactive) | 85.5 µM (inactive) | 2.93 µM (inactive) | 8.57 µM (inactive) | 3.76 µM (inactive) | > 100 µM (inactive) | 3.38 µM (inactive) | > 100 µM (inactive) | 97.1 µM (inactive) | 4.32 µM (inactive) | – | 23.6 µM (inactive) | 4.47 µM (inactive) | 2.23 µM (inactive) |
| CCN(CC)CCOc1ccc(N2C(=O)c3cccc4cc([N+](=O)[O-])cc(c34)C2=O)cc1 | 3.88 µM (inactive) | 10.8 µM (inactive) | 12.8 µM (inactive) | 4.91 µM (inactive) | 12.5 µM (inactive) | 7.48 µM (inactive) | 13.8 µM (inactive) | 7.08 µM (inactive) | 14.7 µM (inactive) | 9.02 µM (inactive) | 19.7 µM (inactive) | – | 4.75 µM (inactive) | 1.67 µM (inactive) | 3.56 µM (inactive) | 3.88 µM (inactive) | 4.23 µM (inactive) | – | 0.524 µM (active) | 16.3 µM (inactive) |
| COc1ccc(C(=O)/C=C/c2cccnc2)cc1OC | 1.58 µM (inactive) | 5.09 µM (inactive) | 14.5 µM (inactive) | 4.1 µM (inactive) | 16.2 µM (inactive) | – | 15.2 µM (inactive) | 9.64 µM (inactive) | 14.6 µM (inactive) | 2.73 µM (inactive) | 8.45 µM (inactive) | 13.9 µM (inactive) | 1.83 µM (inactive) | 3.33 µM (inactive) | 3.27 µM (inactive) | 4.36 µM (inactive) | 3.51 µM (inactive) | 14 µM (inactive) | – | 12 µM (inactive) |
| CC(C)OP(=O)(CN(C)/C(F)=N\C(F)(F)F)OC(C)C | > 100 µM (inactive) | > 100 µM (inactive) | > 100 µM (inactive) | > 100 µM (inactive) | > 100 µM (inactive) | > 100 µM (inactive) | > 100 µM (inactive) | > 100 µM (inactive) | > 100 µM (inactive) | > 100 µM (inactive) | > 100 µM (inactive) | > 100 µM (inactive) | 8.2 µM (inactive) | > 100 µM (inactive) | > 100 µM (inactive) | > 100 µM (inactive) | > 100 µM (inactive) | > 100 µM (inactive) | > 100 µM (inactive) | – |
| NC(=O)CCC(CCC(N)=O)(CCC(N)=O)[N+](=O)[O-] | – | > 100 µM (inactive) | 60.8 µM (inactive) | > 100 µM (inactive) | – | > 100 µM (inactive) | > 100 µM (inactive) | > 100 µM (inactive) | > 100 µM (inactive) | > 100 µM (inactive) | > 100 µM (inactive) | – | 65.9 µM (inactive) | > 100 µM (inactive) | > 100 µM (inactive) | > 100 µM (inactive) | > 10 µM (inactive) | > 100 µM (inactive) | > 100 µM (inactive) | – |
| CC[C@@]12C=CC(=S)N(CCSc3ccccc3)[C@@H]1c1c(n(S(=O)(=O)c3ccc(OC)cc3)c3ccccc13)CC2 | > 100 µM (inactive) | > 100 µM (inactive) | > 100 µM (inactive) | > 100 µM (inactive) | > 100 µM (inactive) | > 100 µM (inactive) | > 100 µM (inactive) | – | > 100 µM (inactive) | > 100 µM (inactive) | > 100 µM (inactive) | > 100 µM (inactive) | > 100 µM (inactive) | > 100 µM (inactive) | > 100 µM (inactive) | > 100 µM (inactive) | > 100 µM (inactive) | > 100 µM (inactive) | > 100 µM (inactive) | – |
| CC1=NC(=Cc2cccc(Cl)c2)C(=O)N1n1c(-c2ccccc2)nc2ccccc2c1=O | 25.9 µM (inactive) | – | 59.2 µM (inactive) | 36 µM (inactive) | > 10 µM (inactive) | 55 µM (inactive) | 26.9 µM (inactive) | 23.2 µM (inactive) | 24.5 µM (inactive) | 36.1 µM (inactive) | 19.8 µM (inactive) | 41.6 µM (inactive) | 17.5 µM (inactive) | 27.9 µM (inactive) | 20.4 µM (inactive) | 36.5 µM (inactive) | 35.6 µM (inactive) | 23.6 µM (inactive) | 19.3 µM (inactive) | – |
| O=C1[C@@H]2C[C@@H](O)CN2C(=O)c2ccccc2N1CCCO | > 100 µM (inactive) | > 100 µM (inactive) | > 100 µM (inactive) | > 100 µM (inactive) | > 100 µM (inactive) | > 100 µM (inactive) | – | > 100 µM (inactive) | > 100 µM (inactive) | > 100 µM (inactive) | > 100 µM (inactive) | > 100 µM (inactive) | > 100 µM (inactive) | 82 µM (inactive) | > 100 µM (inactive) | > 100 µM (inactive) | – | > 100 µM (inactive) | > 100 µM (inactive) | – |
| O=C(O)CC(Cc1ccccc1Cl)C(=O)O (stereo not given) | > 100 µM (inactive) | > 100 µM (inactive) | > 100 µM (inactive) | > 100 µM (inactive) | > 100 µM (inactive) | > 100 µM (inactive) | > 100 µM (inactive) | > 100 µM (inactive) | > 100 µM (inactive) | – | > 100 µM (inactive) | > 100 µM (inactive) | > 100 µM (inactive) | > 100 µM (inactive) | > 100 µM (inactive) | > 100 µM (inactive) | > 100 µM (inactive) | > 100 µM (inactive) | > 100 µM (inactive) | > 100 µM (inactive) |
| CC1=NC(=O)C(C)(c2ccccc2)N1CCc1ccccc1 (stereo not given) | 58.7 µM (inactive) | > 100 µM (inactive) | > 100 µM (inactive) | 26.5 µM (inactive) | – | 61.8 µM (inactive) | > 100 µM (inactive) | 57.8 µM (inactive) | > 100 µM (inactive) | 85.3 µM (inactive) | 22.3 µM (inactive) | 34.8 µM (inactive) | > 100 µM (inactive) | 15.9 µM (inactive) | 55.1 µM (inactive) | 28 µM (inactive) | 36.2 µM (inactive) | 44 µM (inactive) | – | 25.6 µM (inactive) |
| COc1ccc(C(=O)N2CCN(c3ccc4c(c3)OCC(=O)N4)CC2)cc1OC | > 100 µM (inactive) | > 100 µM (inactive) | > 100 µM (inactive) | > 100 µM (inactive) | > 100 µM (inactive) | > 100 µM (inactive) | > 100 µM (inactive) | > 100 µM (inactive) | > 100 µM (inactive) | > 100 µM (inactive) | 54.3 µM (inactive) | – | 71.1 µM (inactive) | > 100 µM (inactive) | > 100 µM (inactive) | > 100 µM (inactive) | > 100 µM (inactive) | > 100 µM (inactive) | > 100 µM (inactive) | 38.1 µM (inactive) |
| COC(=O)[C@]12CC[C@H]3CC[C@H]([C@H]31)[C@H](c1ccccc1)N2 | 17.3 µM (inactive) | 17 µM (inactive) | 23 µM (inactive) | 15.1 µM (inactive) | 21.9 µM (inactive) | 22.2 µM (inactive) | – | 17 µM (inactive) | 23 µM (inactive) | 16.5 µM (inactive) | 16.4 µM (inactive) | 14.2 µM (inactive) | 20.5 µM (inactive) | 12.9 µM (inactive) | 16 µM (inactive) | 15.6 µM (inactive) | 21.4 µM (inactive) | 14.4 µM (inactive) | 15.9 µM (inactive) | 15.2 µM (inactive) |
